Results taken from PMC11371747, “The role of l-leucovorin uptake and metabolism in the modulation of 5-fluorouracil efficacy and antifolate toxicity” (Frontiers in Pharmacology, 2024).
“And” between values parts separate entries of the source, which are not always exact repeats. Identical values can stand only once.

Legend:
[1] = target: T1, human PCFT (Homo sapiens, UniProt Q96NT5); assay: Inhibition of PCFT-mediated [3H]-l-LV influx in CHO/C5-PCFT cells; assay type: cell-based, Chinese hamster (CHO cells); conditions: for IC50: pH 5.5, 3 min, read-out: Concentration for 50% inhibition of PCFT-mediated [3H]-l-LV influx
T1 construct: expressed in transfected cells; host or cells: CHO/C5 (RFC-deficient Chinese hamster ovary cells, no PCFT)
T1 sequence (Q96NT5 1-459): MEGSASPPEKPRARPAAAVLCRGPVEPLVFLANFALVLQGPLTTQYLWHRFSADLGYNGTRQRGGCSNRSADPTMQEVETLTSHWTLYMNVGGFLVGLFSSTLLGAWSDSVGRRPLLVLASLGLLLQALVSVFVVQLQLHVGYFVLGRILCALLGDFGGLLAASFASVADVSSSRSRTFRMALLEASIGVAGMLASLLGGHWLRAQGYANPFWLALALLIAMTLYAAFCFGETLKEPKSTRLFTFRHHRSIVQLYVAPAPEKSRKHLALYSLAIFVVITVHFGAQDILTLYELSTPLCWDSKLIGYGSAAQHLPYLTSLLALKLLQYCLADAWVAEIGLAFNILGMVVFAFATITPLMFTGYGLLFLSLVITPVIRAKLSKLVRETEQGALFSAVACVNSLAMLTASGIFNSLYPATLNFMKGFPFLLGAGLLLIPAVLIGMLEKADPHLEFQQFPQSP
Procedure: (§1) In order to determine whether the LV isomers were substrates for either folate receptor α (FRα), RFC and/or PCFT, we used model systems with established overexpression of these receptors or transporters ([Westerhof et al., 1995a]; [Westerhof et al., 1995b]; [Lasry et al., 2008]; [Van der Heijden et al., 2009]).
The competitive inhibition by 2.5 μM [^3H]-l-LV influx of PCFT was measured essentially as described for the RFC assay, except that the incubation time was 3 min, at pH 5.5 (the optimal pH for PCFT) and pH 7.4 with increasing amounts of unlabelled LV stereoisomers/antifolate drug. For PCFT too, relative affinities were expressed as the concentration of unlabelled drug necessary to inhibit 50% of [^3H]-l-LV influx.

[2] = target: T2, folate receptor α (FRα) (Homo sapiens, UniProt P15328); assay: Intact cell competitive binding assay, displacement of [3H]-folic acid from FRα in KB cells; conditions: for Relative affinity for FRα: 100 pmol [3H]-FA, inverse ratio of amount of drug displacing 50% of [3H]-FA, FA set to 1
T2 construct: endogenous in cells; host or cells: KB cells (FRα++)
T2 sequence (P15328 25-257): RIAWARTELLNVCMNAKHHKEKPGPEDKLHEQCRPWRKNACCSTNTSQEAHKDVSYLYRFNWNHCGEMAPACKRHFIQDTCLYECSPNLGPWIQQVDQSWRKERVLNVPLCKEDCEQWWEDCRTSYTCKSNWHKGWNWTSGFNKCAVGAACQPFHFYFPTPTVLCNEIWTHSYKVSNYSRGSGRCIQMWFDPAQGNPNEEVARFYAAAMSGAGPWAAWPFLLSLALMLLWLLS
Procedure: as §1
For FRα we used KB cells ([Westerhof et al., 1995b]). An intact cell binding assay for competitive binding was performed as described previously ([Westerhof et al., 1995a]). Briefly, cells were washed with Hanks balanced salt solution and 6 mM glucose (HBSS, pH 7.4), suspended in 1 mL of this solution (1*10^6 for KB cells) and incubated at 4°C for 15 min with 100 pmol [^3H]-folic acid [(^3H)-FA], in the presence and absence of unlabelled folic acid or LV stereoisomers. Cells were collected by centrifugation and analysed for radioactivity. Relative affinities for FRα were defined as the inverse ratio of compound to displace 50% of radioactive folic acid from FRα. The relative affinity of folic acid was set at 1.

[3] = target: T3, reduced folate carrier (RFC/SLC19A1) (Homo sapiens, UniProt P41440); assay: Inhibition of RFC-mediated [3H]-l-LV influx in CEM-7A cells; assay type: cell-based; conditions: for IC50: 5 µM [3H]-l-LV, 2 min, 37°C, read-out: Concentration for 50% inhibition of [3H]-l-LV influx (RFC)
T3 construct: CEM-7A cells, which display 30-fold RFC overexpression relative to wild-type CCRF-CEM cells; endogenous in cells; host or cells: CEM-7A (CCRF-CEM variant, RFC+++ 30-fold)
T3 sequence (P41440 1-591): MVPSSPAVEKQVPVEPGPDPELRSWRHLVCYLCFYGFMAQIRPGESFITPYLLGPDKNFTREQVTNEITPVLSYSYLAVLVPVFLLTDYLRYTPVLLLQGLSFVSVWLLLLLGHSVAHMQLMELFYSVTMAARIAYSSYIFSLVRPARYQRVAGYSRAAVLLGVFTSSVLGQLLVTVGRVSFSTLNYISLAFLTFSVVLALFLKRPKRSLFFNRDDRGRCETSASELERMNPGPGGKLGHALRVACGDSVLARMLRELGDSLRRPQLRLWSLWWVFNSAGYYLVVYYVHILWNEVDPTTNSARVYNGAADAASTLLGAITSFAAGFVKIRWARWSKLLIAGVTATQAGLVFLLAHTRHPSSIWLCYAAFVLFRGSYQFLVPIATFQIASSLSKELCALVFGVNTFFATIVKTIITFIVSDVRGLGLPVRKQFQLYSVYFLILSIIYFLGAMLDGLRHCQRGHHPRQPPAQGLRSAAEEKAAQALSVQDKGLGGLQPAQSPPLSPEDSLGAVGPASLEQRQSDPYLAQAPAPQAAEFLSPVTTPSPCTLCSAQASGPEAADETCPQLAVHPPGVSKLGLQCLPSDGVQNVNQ
Procedure: as §1
CEM-7A cells (2 × 10^6) were suspended in 1 mL HBSS and the assay was initiated by addition of 25 μL 200 μM [^3H]-l-LV; 5,000 pmol (i.e., 5 μM final concentration). Incubations proceeded for 2 min at 37°C in the absence and presence of increasing amounts of unlabelled LV/antifolate drug. Blanks consisted of a separate incubation at 4°C or incubation with 100-fold molar excess of unlabelled l-LV. [^3H]-l-LV influx was terminated by adding 9 mL ice-cold HBSS, centrifugation and an additional wash of the cells with 10 mL ice-cold buffer. Cell pellets were then assessed for radioactivity. Relative affinities for RFC are expressed as the concentration of unlabelled drug necessary to inhibit [^3H]-l-LV uptake by 50%.

[4] = system: WiDr LF/LV cells; assay: Growth inhibition, SRB assay, WiDr LF/LV; assay type: cell-based, human; conditions: WiDr-LF cells, 5 µM d-LV
Procedure: (§2) Briefly, cells were seeded in triplicate in 96-well plates at their pre-established optimal density (CHO cells: 2,500 cells/100 μL; WiDr and HT29: 3,500 cells/100 μL; WiDr-LF/LV, LS174T: 5,000 cells/100 μL; CaCo2, CaCo2-LF/LV, H292, H28 and MSTO-211H: 6,000 cells/100 μL; H460, SW948 and SW1398: 7,000 cells/100 μL) and were allowed to attach for ∼ 24 h at 37°C in 5% CO2 and 100% humidified incubator. Thereafter, 100 μL of drug dilution without LV, or with 5 μM l-LV/5 μM d-LV/10 μM dL-LV (or any LV alone) were added. Cells were allowed to grow for 72 h at 37°C in 5% CO2 and 100% humidity. The t = 0 h control plate consisted of cells plated on the same day as the other cells, but after 24 h at 37°C in 5% CO2 and 100% humidity, only 100 μL medium was added and the cells were fixed immediately with 50% trichloroacetic acid (TCA) in milliQ water (25 μL per well) and put at 4°C for at least 1 h. Plates were washed five times with water and dried. Cells were stained with the SRB protein dye (0.4% (w/v) in 1% acetic acid. Excess dye was washed away four times with 1% acetic acid and plates were dried again. 200 μL of Tris (10 mM Tris (hydroxymethyl)-aminomethane in MQ) was added and optical density (OD) was read at 492 nm after mixing 2–3 min on a plate shaker.

[5] = system: colon cancer cell lines; assay: Growth inhibition, SRB assay, panel of colon cancer cell lines; assay type: cell-based, human
Procedure: as §2

[6] = target: T4, thymidylate synthase (TS) (Homo sapiens, UniProt P04818); assay: TS in situ inhibition assay (TSIA) in colon cancer cells; assay type: cell-based; conditions: WiDr, 5 µM d-LV
T4 construct: The principle of this assay is the measurement of TS enzymatic activity in intact cells; endogenous in cells; host or cells: colon cancer cell lines (WiDr, WiDr-LF, SW1398, LS174T and others)
T4 sequence (P04818 2-313 limits assumed): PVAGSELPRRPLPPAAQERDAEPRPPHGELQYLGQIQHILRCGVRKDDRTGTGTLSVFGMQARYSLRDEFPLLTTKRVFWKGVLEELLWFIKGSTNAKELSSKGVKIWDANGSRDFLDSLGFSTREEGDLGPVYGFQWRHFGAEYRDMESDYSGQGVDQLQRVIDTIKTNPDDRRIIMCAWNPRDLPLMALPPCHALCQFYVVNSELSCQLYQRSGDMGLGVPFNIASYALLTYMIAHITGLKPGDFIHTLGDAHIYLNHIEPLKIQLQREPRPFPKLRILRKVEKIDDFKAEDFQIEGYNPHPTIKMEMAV
Text: The principle of this assay is the measurement of TS enzymatic activity in intact cells. Intact cells will readily internalize radioactively labelled [5-^3H]-deoxycytidine, which will be rapidly converted by deoxycytidine kinase (dCK) to [5-^3H]-dCMP and subsequently deaminated to [5-^3H]-dUMP, which will then serve as a substrate in the TS catalysed reaction to dTMP and ^3H2O; the quantity of ^3H2O formed over time is a measure of intracellular TS activity. […] This is because dCK has a higher, cell cycle independent activity than thymidine kinase 1, which is a cell cycle dependent enzyme. For this purpose, cancer cells were cultured in six wells plates at 2.5 × 10^5 cells/2 mL/well for 24 h. Thereafter, cells were exposed to drugs with or without the LV formulations at the indicated concentrations for 4 h. 2 h before the end of the incubation period [5-^3H]-2′-deoxycytidine (final concentration 1 µM) was added to the cells. […] In most cell lines we quantified dCK activity and dCK mRNA levels.

[7] = CHO/C5/PCFT cells, 2.5 µM [3H]-l-LV

SMILES | PCFT influx rate of [3H]-l-LV at pH 7.4 compared to pH 5.5 [1, 7] | Molar excess over folic acid required for displacement of [3H]-FA binding from FRα [2] [fold] | Relative affinity for FRα [2] | IC50 [3] [µM] | IC50 [1, 7] [µM] | Increase of IC50 value for 5FU by d-LV [4] [fold] | Modulation of 5FU sensitivity ([5]; all colon cancer cell lines) | Protective effect on the TSIA against antifolates [6] | RFC substrate affinity of l-LV over d-LV [3] [fold] | PCFT substrate affinity of l-LV over d-LV [1] [fold] | Modulation (enhanced efficacy) of 5FU ([5]; selected colon cancer cell lines: WiDr, HT29, SW948 and SW1398 cells, 5 µM l-LV) [fold]
Nc1nc(=O)c2c([nH]1)NC[C@H](CNc1ccc(C(=O)N[C@@H](CCC(=O)O)C(=O)O)cc1)N2C=O [[^3H]-l-LV, [3′,5′,7,9-^3H(N)]-(6S)-Leucovorin] | 11% and 11.5% | – | – | – | – | – | – | – | – | – | –
Nc1nc2c(c(=O)[nH]1)N(C=O)[C@H](CNc1ccc(C(=O)N[C@@H](CCC(=O)O)C(=O)O)cc1)CN2 [d-LV, (6R)-leucovorin] | – | 69 | 0.016 | 44 | 13.3 | 1.5 | ineffective | does not display any protective effect | – | – | –
Nc1nc2c(c(=O)[nH]1)N(C=O)C(CNc1ccc(C(=O)N[C@@H](CCC(=O)O)C(=O)O)cc1)CN2 (stereo partly drawn) [l-LV, 5-formyltetrahydrofolate] | – | 15 | 0.073 | 5.5 | 4 | – | – | – | 8 | 3.5 | 2
